The target in the experiment is T1, Bile acid receptor (Homo sapiens, UniProt Q96RI1).
T1 sequence (Q96RI1 whole entry): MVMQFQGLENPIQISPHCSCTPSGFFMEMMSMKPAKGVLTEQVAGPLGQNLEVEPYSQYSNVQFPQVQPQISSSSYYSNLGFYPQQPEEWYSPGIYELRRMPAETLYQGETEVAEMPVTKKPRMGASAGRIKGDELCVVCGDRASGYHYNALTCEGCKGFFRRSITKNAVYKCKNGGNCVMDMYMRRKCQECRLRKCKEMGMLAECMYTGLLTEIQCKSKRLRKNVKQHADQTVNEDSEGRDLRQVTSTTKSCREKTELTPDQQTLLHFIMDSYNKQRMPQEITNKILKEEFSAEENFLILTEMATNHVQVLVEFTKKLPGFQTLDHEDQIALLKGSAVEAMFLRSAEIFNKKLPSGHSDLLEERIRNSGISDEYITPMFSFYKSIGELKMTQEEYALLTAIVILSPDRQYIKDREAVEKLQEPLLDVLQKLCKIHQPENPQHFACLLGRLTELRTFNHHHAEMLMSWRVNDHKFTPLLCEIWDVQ
Briefly: Antagonist activity at human FXR expressed in COS1 cells assessed as inhibition of CDCA-induced receptor activation after 2 days by luciferase reporter gene assay. The class given is cell-based. (In general: A reporter such as luciferase makes a cellular process visible.)

One may read the IC50 as the concentration that gives 50% inhibition.

As to `CC(C)(C)n1ncc(C(=O)Nc2ccc3cnn(CC4CCN(c5ccc(C(=O)O)cc5)CC4)c3c2)c1-c1ccc(F)cc1`, the IC50 stood at 1 nM.

(Values after ChEMBL document CHEMBL4007446, “Synthesis and biological evaluations of chalcones, flavones and chromenes as farnesoid x receptor (FXR) antagonists” (Eur J Med Chem, 2017).)
